Measured values taken from the supplement of paper PMC8617591.

Legend:
[1] = tested on: Mycobacterium tuberculosis Erdman (autoluminescent); assay: total FIC50 (Loewe) at 50% inhibition, three-drug combination (log2); higher = more antagonistic
Experimental: (§1)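 DiaMOND equipotent three-drug combination dose responses (10 doses, 1.5- or 2-fold spacing, centred on IC90) against autoluminescent M. tuberculosis Erdman in 8 in vitro models. Read-out is OD600, or luminescence for the intracellular and dormancy models, normalised to untreated wells. Hill-fit Einf, AUC25 and GRinf are potency metrics; FIC50 and FIC90 are total Loewe fractional inhibitory concentrations as log2 (negative = synergy).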

[2] = tested on: Mycobacterium tuberculosis Erdman (autoluminescent); assay: total FIC90 (Loewe) at 90% inhibition, three-drug combination (log2); higher = more antagonistic
Experimental: as §1

[3] = tested on: Mycobacterium tuberculosis Erdman (autoluminescent); assay: Einf, fitted maximum growth inhibition of three-drug combination (fraction); higher = stronger maximal inhibition
Experimental: as §1

[4] = tested on: Mycobacterium tuberculosis Erdman (autoluminescent); assay: AUC25, normalised area under dose response up to IC25 (three-drug combination) (fraction (0-1)); higher = more potent at low dose
Experimental: as §1

[5] = tested on: Mycobacterium tuberculosis Erdman (autoluminescent); assay: GRinf, maximum normalised growth rate inhibition (three-drug combination) (unitless (-1 to 1)); higher = less effect (negative = killing)
Experimental: as §1

COc1nc2ccc(Br)cc2cc1[C@@H](c1ccccc1)[C@@](O)(CCN(C)C)c1cccc2ccccc12 [bedaquiline] + CC(C)/N=c1\cc2n(-c3ccc(Cl)cc3)c3ccccc3nc-2cc1Nc1ccc(Cl)cc1 [clofazimine] + COc1c(N2C[C@@H]3CCCN[C@@H]3C2)c(F)cc2c(=O)c(C(=O)O)cn(C3CC3)c12 [moxifloxacin]
Conditions	AUC25, [4]	Einf, [3]	GRinf, [5]	total FIC50, [1]	total FIC90, [2]
in vitro model: acidic pH 5.7, time point: constant (~7 days, model-specific)	0.0874	0.698	-0.457	1.07	–
in vitro model: acidic pH 5.7, time point: terminal (~4-5 doublings, model-specific)	0.0681	0.957	-0.368	0.792	0.0494
in vitro model: intracellular J774, time point: constant = terminal	–	0.974	-0.345	–	0.0395

Conditions	AUC25, [4]	Einf, [3]	GRinf, [5]	total FIC50, [1]	total FIC90, [2]
in vitro model: butyrate, time point: constant (~7 days, model-specific)	0.0682	0.95	-0.111	-0.0983	-0.596
in vitro model: butyrate, time point: terminal (~4-5 doublings, model-specific)	0.0514	0.979	-0.117	0.0193	-0.388
in vitro model: cholesterol 0.05 mM, time point: constant (~7 days, model-specific)	0.0732	0.724	-0.218	-0.685	–
in vitro model: cholesterol 0.05 mM, time point: terminal (~4-5 doublings, model-specific)	0.0839	0.927	-0.23	0.399	-1.01
in vitro model: cholesterol-high 0.2 mM, time point: constant (~7 days, model-specific)	0.094	0.97	-0.382	-0.248	0.136
in vitro model: cholesterol-high 0.2 mM, time point: terminal (~4-5 doublings, model-specific)	0.0879	1	-0.535	0.0978	-0.0166
in vitro model: dormancy (butyrate + nitrate, low O2), time point: constant (~7 days, model-specific)	0.0734	0.907	0.241	-0.202	-0.9
in vitro model: dormancy (butyrate + nitrate, low O2), time point: terminal (~4-5 doublings, model-specific)	0.0897	0.997	-0.093	-0.168	0.176
in vitro model: standard 7H9 glycerol, time point: constant = terminal	0.0896	0.983	-0.156	-0.176	-0.548
in vitro model: valerate, time point: constant (~7 days, model-specific)	0.121	0.959	-0.201	0.443	–
in vitro model: valerate, time point: terminal (~4-5 doublings, model-specific)	0.0856	0.968	-0.1	0.482	1.71

COc1nc2ccc(Br)cc2cc1[C@@H](c1ccccc1)[C@@](O)(CCN(C)C)c1cccc2ccccc12 [bedaquiline] + CC(C)/N=c1\cc2n(-c3ccc(Cl)cc3)c3ccccc3nc-2cc1Nc1ccc(Cl)cc1 [clofazimine] + NC(=O)c1cnccn1 [pyrazinamide]
Conditions	AUC25, [4]	Einf, [3]	GRinf, [5]	total FIC50, [1]	total FIC90, [2]
in vitro model: acidic pH 5.7, time point: constant (~7 days, model-specific)	0.0929	0.862	-0.349	0.0846	–
in vitro model: acidic pH 5.7, time point: terminal (~4-5 doublings, model-specific)	0.074	0.968	-0.284	0.193	-0.409
in vitro model: intracellular J774, time point: constant = terminal	–	0.963	-0.197	–	-0.109

Conditions	AUC25, [4]	Einf, [3]	GRinf, [5]	total FIC50, [1]	total FIC90, [2]
in vitro model: butyrate, time point: constant (~7 days, model-specific)	0.0756	0.946	-0.0789	-0.624	-0.916
in vitro model: butyrate, time point: terminal (~4-5 doublings, model-specific)	0.0582	0.977	-0.0813	-0.595	-1.03
in vitro model: cholesterol 0.05 mM, time point: constant (~7 days, model-specific)	0.0812	0.732	-0.17	–	–
in vitro model: cholesterol 0.05 mM, time point: terminal (~4-5 doublings, model-specific)	0.0926	0.939	-0.225	0.513	–
in vitro model: cholesterol-high 0.2 mM, time point: constant (~7 days, model-specific)	0.06	0.921	-0.227	-0.0552	–
in vitro model: cholesterol-high 0.2 mM, time point: terminal (~4-5 doublings, model-specific)	0.0776	1	-0.556	0.345	-0.162
in vitro model: dormancy (butyrate + nitrate, low O2), time point: constant (~7 days, model-specific)	0.0795	0.924	0.201	-1.18	-1.48
in vitro model: dormancy (butyrate + nitrate, low O2), time point: terminal (~4-5 doublings, model-specific)	0.0671	0.991	-0.181	-0.97	-1.37
in vitro model: standard 7H9 glycerol, time point: constant = terminal	0.0904	0.961	-0.0928	-0.389	–
in vitro model: valerate, time point: constant (~7 days, model-specific)	0.103	0.884	0.0304	0.388	–
in vitro model: valerate, time point: terminal (~4-5 doublings, model-specific)	0.0692	0.929	0.0196	0.415	0.773

COc1nc2ccc(Br)cc2cc1[C@@H](c1ccccc1)[C@@](O)(CCN(C)C)c1cccc2ccccc12 [bedaquiline] + CC(C)/N=c1\cc2n(-c3ccc(Cl)cc3)c3ccccc3nc-2cc1Nc1ccc(Cl)cc1 [clofazimine] + NNC(=O)c1ccncc1 [isoniazid]
Conditions	AUC25, [4]	Einf, [3]	GRinf, [5]	total FIC50, [1]	total FIC90, [2]
in vitro model: acidic pH 5.7, time point: constant (~7 days, model-specific)	0.11	0.842	-0.379	0.675	–
in vitro model: acidic pH 5.7, time point: terminal (~4-5 doublings, model-specific)	0.09	0.969	-0.293	0.356	0.616
in vitro model: intracellular J774, time point: constant = terminal	–	0.96	-0.447	–	-0.134

Conditions	AUC25, [4]	Einf, [3]	GRinf, [5]	total FIC50, [1]	total FIC90, [2]
in vitro model: butyrate, time point: constant (~7 days, model-specific)	0.0622	0.945	-0.1	-0.0224	-0.194
in vitro model: butyrate, time point: terminal (~4-5 doublings, model-specific)	0.0523	0.979	-0.119	-0.00128	-0.306
in vitro model: cholesterol 0.05 mM, time point: constant (~7 days, model-specific)	0.0812	0.724	-0.209	-0.55	–
in vitro model: cholesterol 0.05 mM, time point: terminal (~4-5 doublings, model-specific)	0.0932	0.933	-0.263	0.444	-0.22
in vitro model: cholesterol-high 0.2 mM, time point: constant (~7 days, model-specific)	0.0765	0.955	-0.396	0.226	0.206
in vitro model: cholesterol-high 0.2 mM, time point: terminal (~4-5 doublings, model-specific)	0.0685	1	-0.54	0.648	0.259
in vitro model: dormancy (butyrate + nitrate, low O2), time point: constant (~7 days, model-specific)	0.0746	0.911	0.317	0.0126	-0.362
in vitro model: dormancy (butyrate + nitrate, low O2), time point: terminal (~4-5 doublings, model-specific)	0.0741	0.991	-0.0967	-0.283	-0.303
in vitro model: standard 7H9 glycerol, time point: constant = terminal	0.0945	0.97	-0.0956	-0.294	-0.677
in vitro model: valerate, time point: constant (~7 days, model-specific)	0.109	0.903	-0.0916	0.133	-0.379
in vitro model: valerate, time point: terminal (~4-5 doublings, model-specific)	0.0654	0.948	-0.0502	0.246	0.504
